# Several values for one entry are separate records, joined by “and”; a condition that tells them apart may be missing. Equal entries are not always repeated.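 Method: 48-hour compound exposure of cells in 96-well plates, five concentrations, linear interpolation of endpoints. GI50: concentration for 50% inhibition of growth. TGI is the concentration that stops growth completely.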
# Key:
# Test in all cases: DTP human tumour cell line panel, 48 h
# HCC-2998 colon = test system: HCC-2998 colon
# 786-0 renal = test system: 786-0 renal
# MOLT-4 leukemia = test system: MOLT-4 leukemia
# RXF 393 renal = test system: RXF 393 renal
# SF-295 CNS = test system: SF-295 CNS
# KM20L2 colon = test system: KM20L2 colon
# UACC-62 melanoma = test system: UACC-62 melanoma
# CCRF-CEM leukemia = test system: CCRF-CEM leukemia
# HOP-18 NSCLC = test system: HOP-18 NSCLC
# SK-MEL-5 melanoma = test system: SK-MEL-5 melanoma
# SNB-75 CNS = test system: SNB-75 CNS
# SF-268 CNS = test system: SF-268 CNS
# SK-MEL-2 melanoma = test system: SK-MEL-2 melanoma
# COLO 205 colon = test system: COLO 205 colon
# UO-31 renal = test system: UO-31 renal
# SR leukemia = test system: SR leukemia
# SK-OV-3 ovarian = test system: SK-OV-3 ovarian
# A549 NSCLC = test system: A549 NSCLC
# SF-539 CNS = test system: SF-539 CNS
# HCT-116 colon = test system: HCT-116 colon
# SNB-78 CNS = test system: SNB-78 CNS
# EKVX NSCLC = test system: EKVX NSCLC
# SK-MEL-28 melanoma = test system: SK-MEL-28 melanoma
# RPMI-8226 leukemia = test system: RPMI-8226 leukemia
# SN12C renal = test system: SN12C renal
# HOP-92 NSCLC = test system: HOP-92 NSCLC
# OVCAR-5 ovarian = test system: OVCAR-5 ovarian
# U251 CNS = test system: U251 CNS
# IGROV1 ovarian = test system: IGROV1 ovarian
# HCT-15 colon = test system: HCT-15 colon
# DMS 114 small cell lung = test system: DMS 114 small cell lung
# M14 melanoma = test system: M14 melanoma
# LOX IMVI melanoma = test system: LOX IMVI melanoma
# HT29 colon = test system: HT29 colon
# NCI-H460 lung = test system: NCI-H460 lung
# OVCAR-4 ovarian = test system: OVCAR-4 ovarian
# A498 renal = test system: A498 renal
# HL-60(TB) leukemia = test system: HL-60(TB) leukemia
# SW-620 colon = test system: SW-620 colon
# UACC-257 melanoma = test system: UACC-257 melanoma
# MALME-3M melanoma = test system: MALME-3M melanoma
# OVCAR-8 ovarian = test system: OVCAR-8 ovarian
# HOP-62 NSCLC = test system: HOP-62 NSCLC
# SNB-19 CNS = test system: SNB-19 CNS
# K-562 leukemia = test system: K-562 leukemia
# NCI-H23 lung = test system: NCI-H23 lung
# LXFL 529 NSCLC = test system: LXFL 529 NSCLC
# NCI-H226 lung = test system: NCI-H226 lung
# TK-10 renal = test system: TK-10 renal
# CAKI-1 renal = test system: CAKI-1 renal
# DLD-1 colon = test system: DLD-1 colon
# KM12 colon = test system: KM12 colon
# OVCAR-3 ovarian = test system: OVCAR-3 ovarian
# M19-MEL melanoma = test system: M19-MEL melanoma
# ACHN renal = test system: ACHN renal
# NCI-H522 lung = test system: NCI-H522 lung
# HS 578T breast = test system: HS 578T breast
# DU-145 prostate = test system: DU-145 prostate
# MDA-N = test system: MDA-N
# T-47D breast = test system: T-47D breast
# BT-549 breast = test system: BT-549 breast
# PC-3 prostate = test system: PC-3 prostate
# MDA-MB-231 breast = test system: MDA-MB-231 breast
smiles,measurement,setting,value
Cc1ccc2c(c1)c(=O)c1c(NCCN(C)C)ccc3nnn2c31,TGI,HCC-2998 colon,17 µM
same,TGI,786-0 renal,15.9 µM
same,TGI,MOLT-4 leukemia,5.06 µM
same,TGI,RXF 393 renal,16.9 µM
same,TGI,SF-295 CNS,15.4 µM
same,TGI,KM20L2 colon,16 µM
same,TGI,UACC-62 melanoma,20.5 µM
same,TGI,CCRF-CEM leukemia,17.9 µM
same,TGI,HOP-18 NSCLC,50 µM
same,TGI,SK-MEL-5 melanoma,14.1 µM
same,TGI,SNB-75 CNS,16.9 µM
same,TGI,SF-268 CNS,20.2 µM
same,TGI,SK-MEL-2 melanoma,21.1 µM
same,TGI,COLO 205 colon,9.72 µM
same,TGI,UO-31 renal,23.9 µM
same,TGI,SR leukemia,7.67 µM
same,TGI,SK-OV-3 ovarian,37.6 µM
same,TGI,A549 NSCLC,13.6 µM
same,TGI,SF-539 CNS,17.8 µM
same,TGI,HCT-116 colon,15.2 µM
same,TGI,SNB-78 CNS,24.2 µM
same,TGI,EKVX NSCLC,23.6 µM
same,TGI,SK-MEL-28 melanoma,18 µM
same,TGI,RPMI-8226 leukemia,7.63 µM
same,TGI,SN12C renal,> 42 µM
same,TGI,HOP-92 NSCLC,11.5 µM
same,TGI,OVCAR-5 ovarian,12.4 µM
same,TGI,U251 CNS,16.9 µM
same,TGI,IGROV1 ovarian,23 µM
same,TGI,HCT-15 colon,20.3 µM
same,TGI,DMS 114 small cell lung,18.5 µM
same,TGI,M14 melanoma,16.4 µM
same,TGI,LOX IMVI melanoma,4.6 µM
same,TGI,HT29 colon,12 µM
same,TGI,NCI-H460 lung,10.2 µM
same,TGI,OVCAR-4 ovarian,12.9 µM
same,TGI,A498 renal,12 µM
same,TGI,HL-60(TB) leukemia,8.58 µM
same,TGI,SW-620 colon,18 µM
same,TGI,UACC-257 melanoma,14.2 µM
same,TGI,MALME-3M melanoma,18 µM
same,TGI,OVCAR-8 ovarian,17.7 µM
same,TGI,HOP-62 NSCLC,21.5 µM
same,TGI,SNB-19 CNS,33.8 µM
same,TGI,K-562 leukemia,19.6 µM
same,TGI,NCI-H23 lung,15.3 µM
same,TGI,LXFL 529 NSCLC,20.1 µM
same,TGI,NCI-H226 lung,10.3 µM
same,TGI,TK-10 renal,28.3 µM
same,TGI,CAKI-1 renal,12.3 µM
same,TGI,DLD-1 colon,20 µM
same,TGI,KM12 colon,11.7 µM
same,TGI,OVCAR-3 ovarian,> 42.8 µM
same,TGI,M19-MEL melanoma,20.8 µM
same,TGI,ACHN renal,17.7 µM
same,TGI,NCI-H522 lung,17.6 µM
COc1ccc(/C=C\c2cc(OC)c(OC)c(OC)c2)cc1OP(=O)(O)O,GI50,HCC-2998 colon,0.929 µM
same,TGI,786-0 renal,> 100 µM
same,TGI,MOLT-4 leukemia,> 100 µM and 50 µM
same,GI50,HS 578T breast,13.2 µM
same,TGI,UACC-62 melanoma,> 100 µM and 50 µM and > 64.3 µM
same,TGI,CCRF-CEM leukemia,> 100 µM
same,GI50,HOP-18 NSCLC,> 100 µM
same,TGI,HOP-18 NSCLC,> 100 µM
same,TGI,SNB-75 CNS,50 µM and > 100 µM
same,GI50,DU-145 prostate,0.609 µM
same,TGI,DU-145 prostate,0.356 µM and 0.371 µM
same,GI50,MDA-N,< 0.0001 µM
same,TGI,SK-MEL-2 melanoma,0.0169 µM and 0.0953 µM
same,GI50,T-47D breast,20.7 µM
same,TGI,A549 NSCLC,> 100 µM and 50 µM
same,TGI,SNB-78 CNS,> 100 µM and 50 µM
same,TGI,EKVX NSCLC,> 100 µM and 50 µM
same,TGI,SK-MEL-28 melanoma,> 100 µM and 50 µM
same,TGI,RPMI-8226 leukemia,25.1 µM and 50 µM and > 100 µM
same,TGI,BT-549 breast,> 100 µM
same,TGI,SN12C renal,> 100 µM and 50 µM
same,TGI,OVCAR-5 ovarian,> 100 µM
same,TGI,IGROV1 ovarian,> 100 µM and 50 µM
same,TGI,PC-3 prostate,> 100 µM
same,GI50,HT29 colon,0.486 µM and 3.89 µM
same,TGI,SW-620 colon,> 100 µM and 50 µM
same,TGI,MDA-MB-231 breast,> 12.1 µM
same,TGI,UACC-257 melanoma,88.9 µM and 50 µM and > 100 µM
same,TGI,MALME-3M melanoma,> 100 µM and 24.5 µM and > 89 µM
same,GI50,HOP-62 NSCLC,11.9 µM
same,TGI,HOP-62 NSCLC,> 100 µM and 50 µM and > 76.1 µM
same,TGI,SNB-19 CNS,> 100 µM
same,TGI,K-562 leukemia,50 µM and > 100 µM
same,TGI,TK-10 renal,> 100 µM
same,TGI,CAKI-1 renal,> 67.5 µM and 50 µM and > 100 µM
same,TGI,DLD-1 colon,> 100 µM and 50 µM
same,TGI,ACHN renal,> 100 µM and 50 µM and > 65 µM

# — PubChem BioAssay (NCI)
